# Assays:
# [1] = cited from earlier work; for safety of human consumption: by mouth up to 1000 mg per dose per day; for side effects of oral intake: orally, up to or more than 1000 mg per day over many years
# [2] = biological target: T1, alcohol dehydrogenase (ADH) (Saccharomyces cerevisiae, UniProt P00330); test: Effect of NADP concentration on alcohol dehydrogenase activity, OD340 read every minute; format: biochemical; settings: for OD of samples after subtracting OD at time zero vs. Time / OD of samples vs. Time: ADH 84 U/mL, 2.5% ethanol; for OD of samples vs. Time: OD340
# T1 construct: purchased Sigma
# T1 sequence (P00330 1-348): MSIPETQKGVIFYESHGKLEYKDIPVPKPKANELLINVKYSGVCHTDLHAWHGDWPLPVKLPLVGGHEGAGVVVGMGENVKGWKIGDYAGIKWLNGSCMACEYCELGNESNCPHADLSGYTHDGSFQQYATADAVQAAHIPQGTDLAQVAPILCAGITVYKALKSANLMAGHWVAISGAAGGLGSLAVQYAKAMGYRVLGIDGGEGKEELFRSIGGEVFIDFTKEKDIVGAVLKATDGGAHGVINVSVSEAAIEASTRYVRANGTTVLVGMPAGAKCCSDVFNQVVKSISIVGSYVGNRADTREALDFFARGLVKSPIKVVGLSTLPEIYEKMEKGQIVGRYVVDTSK
# Experimental: 100% ethanol (EtOH) was purchased from VWR. Buffer used was Triz Base at 0.2 M, pH 8.2.
# The concentration of ethanol is 2.5% (v/v). And 0.28 mg/mL ADH, equivalent to 84 U/mL.
# Multiple samples were prepared as per Table 1. The assay was performed as follows: • 1. […] Place a quartz cuvette into the spectrophotometer. • 3. At time minus 10 seconds, add 0.1 mL enzyme (2 mg/mL ADH or buffer blank) to the cuvette. • 4. Mix by pipetting. Read OD340 at time zero. • 5. Read OD340 every minute for 5 minutes. 6. Repeat for remaining samples.
compound,measurement,setting,value
"NC(=O)c1ccc[n+]([C@@H]2O[C@H](CO)[C@@H](O)[C@H]2O)c1 [NR, Nicotinamide Riboside]",safety of human consumption,[1],no ill effects
same,side effects of oral intake,[1],without any detectable undesirable side effects
Nicotinamide Adenine Dinucleotide Phosphate [NADP],OD of samples after subtracting OD at time zero vs. Time,"[2]; 0 min, NADP 8.5 mM final",0
same,OD of samples vs. Time,"[2]; 0 min, NADP 8.5 mM final",0.003
same,OD of samples after subtracting OD at time zero vs. Time,"[2]; 0 min, NADP 28 mM final",0
same,OD of samples vs. Time,"[2]; 0 min, NADP 28 mM final, listed as NADP 3x",0.749
same,OD of samples vs. Time,"[2]; 0 min, NADP 28 mM final, listed as NADP 3×",around 0.8
same,velocity of ethanol removal by ADH in the higher NADP mixture compared to the lower NADP mixture,"[2]; 28 mM vs 8.4 mM NADP, same conc of ADH",about 2 ×
same,OD of samples after subtracting OD at time zero vs. Time,"[2]; 1 min, NADP 8.5 mM final",0.059
same,OD of samples vs. Time,"[2]; 1 min, NADP 8.5 mM final",0.062
same,OD of samples vs. Time,"[2]; 1 min, NADP 28 mM final",0.860
same,OD of samples after subtracting OD at time zero vs. Time,"[2]; 2 min, NADP 8.5 mM final",0.087
same,OD of samples vs. Time,"[2]; 2 min, NADP 8.5 mM final",0.090
same,OD of samples after subtracting OD at time zero vs. Time,"[2]; 2 min, NADP 28 mM final",0.169
same,OD of samples vs. Time,"[2]; 2 min, NADP 28 mM final",0.918
same,OD of samples after subtracting OD at time zero vs. Time,"[2]; 3 min, NADP 8.5 mM final",0.098
same,OD of samples vs. Time,"[2]; 3 min, NADP 28 mM final",0.948
same,OD of samples after subtracting OD at time zero vs. Time,"[2]; 4 min, NADP 8.5 mM final",0.102
same,OD of samples vs. Time,"[2]; 4 min, NADP 28 mM final",0.963
same,OD of samples after subtracting OD at time zero vs. Time,"[2]; 5 min, NADP 28 mM final",0.223
same,OD of samples vs. Time,"[2]; 5 min, NADP 28 mM final",0.972
same,OD at higher NADP concentration compared with the lower NADP concentration,"[2]; starting at 1 minute, higher vs lower NADP concentration",higher ODs at every time point
"NC(=O)c1ccc[n+]([C@@H]2O[C@H](COP(=O)([O-])O)[C@@H](O)[C@H]2O)c1 [NMN, Nicotinamide Mononucleotide]",safety of human consumption,[1],no ill effects
same,side effects of oral intake,[1],without any detectable undesirable side effects
